Test results from PubChem BioAssay (NCI).
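GI50 marks 50% less growth. TGI is the concentration that stops growth completely.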

How the values were obtained:
Assay in all cases: inhibition of tumour cell growth, NCI panel, 384-well format; in the data active means GI50 below about 0.43 µM; inactive means the rest
HCT-15 colon = tested on: HCT-15 colon
MALME-3M melanoma = tested on: MALME-3M melanoma
PC-3 prostate = tested on: PC-3 prostate
OVCAR-5 ovarian = tested on: OVCAR-5 ovarian
SF-539 CNS = tested on: SF-539 CNS
LOX IMVI melanoma = tested on: LOX IMVI melanoma
OVCAR-4 ovarian = tested on: OVCAR-4 ovarian
MDA-MB-231 breast = tested on: MDA-MB-231 breast
SF-295 CNS = tested on: SF-295 CNS
MDA-MB-435 melanoma = tested on: MDA-MB-435 melanoma
SK-MEL-5 melanoma = tested on: SK-MEL-5 melanoma
A498 renal = tested on: A498 renal
SW-620 colon = tested on: SW-620 colon
MOLT-4 leukemia = tested on: MOLT-4 leukemia
SN12C renal = tested on: SN12C renal
OVCAR-3 ovarian = tested on: OVCAR-3 ovarian
SK-MEL-2 melanoma = tested on: SK-MEL-2 melanoma
NCI-H23 lung = tested on: NCI-H23 lung
SR leukemia = tested on: SR leukemia
K-562 leukemia = tested on: K-562 leukemia
HT29 colon = tested on: HT29 colon
TK-10 renal = tested on: TK-10 renal
HOP-92 NSCLC = tested on: HOP-92 NSCLC
MDA-MB-468 breast = tested on: MDA-MB-468 breast
OVCAR-8 ovarian = tested on: OVCAR-8 ovarian
SK-OV-3 ovarian = tested on: SK-OV-3 ovarian
UACC-62 melanoma = tested on: UACC-62 melanoma
NCI/ADR-RES ovarian = tested on: NCI/ADR-RES ovarian
UO-31 renal = tested on: UO-31 renal
BT-549 breast = tested on: BT-549 breast
A549 NSCLC = tested on: A549 NSCLC
HL-60(TB) leukemia = tested on: HL-60(TB) leukemia
IGROV1 ovarian = tested on: IGROV1 ovarian
RXF 393 renal = tested on: RXF 393 renal
NCI-H522 lung = tested on: NCI-H522 lung
CCRF-CEM leukemia = tested on: CCRF-CEM leukemia
T-47D breast = tested on: T-47D breast
COLO 205 colon = tested on: COLO 205 colon
HOP-62 NSCLC = tested on: HOP-62 NSCLC
KM12 colon = tested on: KM12 colon
NCI-H226 lung = tested on: NCI-H226 lung
DU-145 prostate = tested on: DU-145 prostate
ACHN renal = tested on: ACHN renal
NCI-H460 NSCLC = tested on: NCI-H460 NSCLC
NCI-H322M lung = tested on: NCI-H322M lung
U251 glioblastoma = tested on: U251 glioblastoma
RPMI-8226 leukemia = tested on: RPMI-8226 leukemia
MCF7 breast = tested on: MCF7 breast
M14 melanoma = tested on: M14 melanoma
786-0 renal = tested on: 786-0 renal
SK-MEL-28 melanoma = tested on: SK-MEL-28 melanoma
CAKI-1 renal = tested on: CAKI-1 renal
UACC-257 melanoma = tested on: UACC-257 melanoma

CN(C(=O)c1ccc(C(F)(F)F)cc1)c1ccc(Oc2ccc3c(c2)cc(C(=O)N2CCN(Cc4ccc(OC(F)F)cc4)CC2)n3C)nc1
< 0.01 µM: TGI (NCI-H23 lung) | TGI (SR leukemia) | TGI (MDA-MB-468 breast) | TGI (RXF 393 renal) | TGI (NCI-H460 NSCLC) | TGI (RPMI-8226 leukemia)
inactive: GI50 (HCT-15 colon) 6.41 µM | GI50 (MALME-3M melanoma) > 100 µM | GI50 (PC-3 prostate) 3.48 µM | GI50 (OVCAR-5 ovarian) > 100 µM | GI50 (SF-539 CNS) > 100 µM | GI50 (MDA-MB-435 melanoma) > 100 µM | GI50 (SW-620 colon) 8.11 µM | GI50 (SN12C renal) > 100 µM | GI50 (OVCAR-3 ovarian) 3.02 µM | GI50 (SK-MEL-2 melanoma) > 100 µM | GI50 (HT29 colon) > 100 µM | GI50 (TK-10 renal) 2.97 µM | GI50 (HOP-92 NSCLC) 0.864 µM | GI50 (UACC-62 melanoma) > 100 µM | GI50 (UO-31 renal) > 100 µM | GI50 (BT-549 breast) 1.27 µM | GI50 (HL-60(TB) leukemia) 1.01 µM | GI50 (COLO 205 colon) > 100 µM | GI50 (KM12 colon) > 100 µM | GI50 (NCI-H226 lung) 0.431 µM | GI50 (DU-145 prostate) > 100 µM | GI50 (ACHN renal) > 100 µM | GI50 (M14 melanoma) 6.53 µM | GI50 ([…]-0 renal) > 100 µM | GI50 (SK-MEL-28 melanoma) > 100 µM | GI50 (CAKI-1 renal) > 100 µM
> 100 µM: TGI (HCT-15 colon) | TGI (MALME-3M melanoma) | TGI (PC-3 prostate) | TGI (OVCAR-5 ovarian) | TGI (SF-539 CNS) | TGI (LOX IMVI melanoma) | TGI (OVCAR-4 ovarian) | TGI (MDA-MB-231 breast) | TGI (SF-295 CNS) | TGI (MDA-MB-435 melanoma) | TGI (SW-620 colon) | TGI (SN12C renal) | TGI (OVCAR-3 ovarian) | TGI (SK-MEL-2 melanoma) | TGI (K-562 leukemia) | TGI (HT29 colon) | TGI (TK-10 renal) | TGI (HOP-92 NSCLC) | TGI (OVCAR-8 ovarian) | TGI (SK-OV-3 ovarian) | TGI (UACC-62 melanoma) | TGI (UO-31 renal) | TGI (BT-549 breast) | TGI (A549 NSCLC) | TGI (IGROV1 ovarian) | TGI (NCI-H522 lung) | TGI (COLO 205 colon) | TGI (HOP-62 NSCLC) | TGI (KM12 colon) | TGI (NCI-H226 lung) | TGI (DU-145 prostate) | TGI (ACHN renal) | TGI (NCI-H322M lung) | TGI (U251 glioblastoma) | TGI (MCF7 breast) | TGI (M14 melanoma) | TGI (786-0 renal) | TGI (SK-MEL-28 melanoma) | TGI (CAKI-1 renal)
active: GI50 (LOX IMVI melanoma) < 0.01 µM | GI50 (OVCAR-4 ovarian) < 0.01 µM | GI50 (MDA-MB-231 breast) < 0.01 µM | GI50 (SF-295 CNS) 0.0107 µM | GI50 (SK-MEL-5 melanoma) < 0.01 µM | GI50 (A498 renal) < 0.01 µM | GI50 (MOLT-4 leukemia) < 0.01 µM | GI50 (NCI-H23 lung) < 0.01 µM | GI50 (SR leukemia) < 0.01 µM | GI50 (K-562 leukemia) < 0.01 µM | GI50 (MDA-MB-468 breast) < 0.01 µM | GI50 (OVCAR-8 ovarian) < 0.01 µM | GI50 (SK-OV-3 ovarian) < 0.01 µM | GI50 (NCI/ADR-RES ovarian) < 0.01 µM | GI50 (A549 NSCLC) < 0.01 µM | GI50 (IGROV1 ovarian) 0.0201 µM | GI50 (RXF 393 renal) < 0.01 µM | GI50 (NCI-H522 lung) < 0.01 µM | GI50 (CCRF-CEM leukemia) < 0.01 µM | GI50 (T-47D breast) < 0.01 µM | GI50 (HOP-62 NSCLC) < 0.01 µM | GI50 (NCI-H460 NSCLC) < 0.01 µM | GI50 (NCI-H322M lung) < 0.01 µM | GI50 (U251 glioblastoma) < 0.01 µM | GI50 (RPMI-8226 leukemia) < 0.01 µM | GI50 (MCF7 breast) 0.136 µM | GI50 (UACC-257 melanoma) < 0.01 µM
1.04 µM: TGI (CCRF-CEM leukemia)
0.0671 µM: TGI (NCI/ADR-RES ovarian)
6.89 µM: TGI (T-47D breast)
2.84 µM: TGI (UACC-257 melanoma)
1.42 µM: TGI (MOLT-4 leukemia)
0.0209 µM: TGI (A498 renal)
0.95 µM: TGI (SK-MEL-5 melanoma)
2.56 µM: TGI (HL-60(TB) leukemia)
